From patent publication US5646128A, “Methods for treating adenosine kinase related conditions” (priority 1994, dated 1997)
“Also recorded” adds a separate entry of the source. Like-named read-outs stand apart in the source and are kept apart here.

Experiments:
E. coli LPS endotoxemia [1] = assay: Prophylactic treatment for endotoxemia in mice; assay type: in vivo, Balb/C mice; settings: 5 mg/kg oral, 6 hours before 700 ug LPS i.v.
Protocol: As shown in Example E, intravenous treatment with an adenosine kinase inhibitor improves survival of mice if administered immediately after intravenous injection with LPS. In the following experiments, it was shown that an adenosine kinase inhibitor (GP-1-515) protects animals against endotoxemia if administered prophylactically. In these experiments, 25-30 gram male Balb/C mice received oral GP-1-515 (5 mg/kg in water) or vehicle by gavage. Six hours later, the animals received an intravenous injection of 700 ug of E. coli LPS (Sigma Chemical Co.). In an experiment involving 10 animals per group, 50% of mice in the adenosine kinase inhibitor-treated group survived for 2 days, while none of animals in the vehicle treated group survived for that time period (data not shown).

adenosine kinase = molecular target: T1, adenosine kinase (Bos taurus, UniProt A0AAA9RZ79); assay: Adenosine kinase inhibition in intact cells (capillary endothelial cells from bovine heart); assay type: cell-based; settings: 20 μM 2'-deoxycoformycin, 5 μM [3H]adenosine
T1 construct: endogenous in cells; host or cells: capillary endothelial cells from bovine heart
Protocol: Inhibition of adenosine kinase in intact cells was determined from the amount of incorporation of radioisotope from adenosine into the adenylates (AMP, ADP and ATP) in the presence of adenosine deaminase inhibition. […] The media was then discarded and the cells were treated with 50 μl 0.4M perchloric acid, centrifuged and the supernalants neutralized with 100 μl alanine: freon (1:4).

E. coli LPS endotoxemia [2] = assay: Survival in endotoxemia (E. coli LPS) in mice; assay type: in vivo, Balb/C mice; settings: i.v. immediately after 900 ug LPS i.v.; p=0.015
From the text: An adenosine kinase inhibitor (GP-1-515) was used to increase endogenous adenosine production in vivo.

TNF-α = assay: Inhibition of TNF-alpha production in endotoxemic mice (ELISA); assay type: in vivo, Balb/C mice; settings: 0.1 mg/kg i.v., one hour after LPS; p<0.01
Protocol: In these experiments, plasma TNF-α levels were measured in GP-1-515and placebo-treated mice (8 animals per group). Balb/C mice received an intravenous injection of E. coli LPS (900 ug/animal) (Sigma Chemical Co.) followed immediately by a second injection with 0.1 mg/kg of GP-1-515 or vehicle. Some animals were pretreated with an intraperitoneal injection of the adenosine receptor antagonist 8SPT. One hour later, blood was obtained from ether anesthetized animals by intracardiac puncture using a heparinized syringe. Blood samples were chilled on ice, centrifuged at 5000 rpm in a microcentrifuge for 5 minutes, and the plasma removed. TNF-α levels in the plasma were assayed by ELISA according to the instructions provided by the manufacturer (Endogen, Cambridge, Mass.).

[3] = tested on: E. Coli 0111:B4 lipopolysaccharide (LPS) endotoxic shock; assay: Endotoxic shock in pigs; assay type: in vivo, Yucatan miniature pigs
Protocol: Male or female Yucatan miniature pigs (20-27 kg) were pre-medicated with xylazine ([…] i.m.), ketamine (150 mg i.m.), and atropine (1 mg i.m.). The animals were intubated, administered 10 mg/kg of pentobarbital intravenously, and covered with a blanket to maintain normal body temperature. A pentobarbital infusion was maintained at 10 mg/kg/hr. The pigs were ventilated with 30% O2 using a Harvard large animal respirator at 7-10 breaths/rain in order to achieve a blood pH of approximately 7.45-7.50. A bolus of 4 mg of Pancuronium bromide was given to inhibit muscle contraction in response to the cautery and the animals were hydrated with a continuous infusion of saline at 60-80 cc/hr. A left thoracotomy was performed in the third intercostal space and the pulmonary artery, carotid artery, external jugular vein were cannulated with PE-190 tubing. A line was also placed in the left atrium and a catheter tipped micromanometer was inserted into the left ventricle via an apical stab wound. A transit-time flow probe was placed on the pulmonary artery. Pressure readings were obtained using a Statham pressure transducer connected to a Gould strip chart recorder. Heparinized arterial blood samples for blood gases were obtained through the carotid arterial catheter. Drugs and endotoxin were infused through the external jugular catheter.
After the animals had stabilized, a continuous infusion of GP-1-515 (0.3 μg/kg/m in) was started, followed 30 min later by a slow infusion of E. Coli 0111:B4 lipopolysaccharide (LPS) (Sigma Chemical Co., St. Louis, Mo.) over 30 min. The animals continued to receive GP-1-515 or vehicle for 4 additional hours and were ventilated with a fixed tidal volume and FiO2. […] Control animals developed severe hypoxemia, hypercapnia, and acidosis. […] 4/7pigs in the control group died (several of whom had frank pulmonary edema) compared to 1/7in the GP-1-515-treated group. Upon completion of the study, the surviving animals were euthanized with an intravenous bolus of pentobarbital.

bacterial translocation = assay: Burn model, bacterial translocation to mesenteric lymph nodes; assay type: in vivo, Female CF-1 mice
Protocol: Female CF-1, non-Swiss, non-albino mice (age 8-12 weeks) (Charles River Laboratory, Wilmington, Mass.) were anesthetized with a 1-2 minute exposure to methoxyflurane (Abbott Labs, Chicago, Ill.). The shaved dorsum was burned by a 6-second exposure to steam using a 3.5×5.5 cm template to produce a 32% total body surface area full thickness burn. Animals were resuscitated with 1 mL of normal saline i.p., followed by 0.1 mg/kg i.p./injection of GP-1-515 or an equal amount of vehicle. Animals also received an i.p. injection of morphine sulfate (15 mg/kg). The animals were administered a second injection of GP-1-515 (0.1 mg/kg) or vehicle i.p. 6 hours after the burn. Animals were fasted for 4 hours before the burn and for 24 hours thereafter. After 48 hours, the animals were sacrificed by cervical dislocation and the abdomen was opened using aseptic techniques. Mesenteric lymph nodes were harvested and weighed in sterile bags, homogenized in Trypticate Soy Broth (BBL, Becton Dickinson Microbiology System, Cockeysville, Md.). Ser. dilutions of the homogenate were plated on […] plates (BBL, Becton Dickinson) at 37° C. and the presence or absence of bacterial colonies was determined 48 hours later. In experiments involving approximately 120 animals, 52% of control mice had positive mesenteric lymph node cultures compared to 32% of GP-1-515-treated mice (p<0.05).

[4] = tested on: bacterial peritonitis and septic shock; assay: Cecal ligation and puncture, model of chronic sepsis; assay type: in vivo, male CD rats; settings: 5 mg/kg orally, 2 hours before
Protocol: Cecal ligation and puncture (CLP) is a model of bacterial peritonitis and septic shock which mimics systemic infections in humans. In these experiments, male CD rats were fasted overnight and treated orally with either GP-1-515 (5 mg/kg) or vehicle by gavage. Two hours later, animals were anesthetized with ether and the anterior abdominal wall was shaved. A midline incision was made and the cecum was exteriorized and ligated with 3-0 silk suture near the ilial-cecal junction without causing bowel obstruction. The cecum was punctured twice on the anti-mesenteric side using a yellow tip disposable pipette tip (Fisher, Tustin, Calif.) and squeezed to ensure patency. The cecum was placed back in the abdominal cavity and the peritoneal wall was closed with 5-0 nylon sutures. The skin was closed with 9 mm stainless steel wound clips. The animals were resuscitated with a subcutaneous injection of 2 mL of sterile saline. No antibiotics were administered.

heart = settings: in vivo; cited from earlier work
[5] = tested on: tumor necrosis factor alpha; settings: cited from earlier work
[6] = tested on: adenosine uptake, guinea pig brain slices; settings: cited from earlier work
[7] = tested on: adenosine uptake, rat brain slices; settings: cited from earlier work
[8] = cited from earlier work
[9] = mouse, in vivo; cited from earlier work
[10] = tested on: perfusate adenosine, isolated rat hearts; settings: normoxic, hypoxic, anoxic or ischemic conditions; alone; cited from earlier work
[11] = tested on: dog hearts subjected to ischemia and reperfusion; settings: in vivo; cited from earlier work
[12] = tested on: plasma leakage in rat skin; assay: Suppression of vascular (plasma) leakage in rat skin, Evans' Blue; assay type: in vivo, Male SA rats; settings: for inhibition at 5 mg/kg: Rattus norvegicus, po, 5 mg/kg p.o. 1 hr prior
Protocol: Leakage of plasma into inflamed skin was measured using Evans' Blue (Sigma Chemical Co., St. Louis, Mo.), which binds irreversibly to albumin. Evans' Blue and bovine serum albumin (Sigma) were mixed (20 and 40 mg/mL PBS, respectively) and incubated for 15 min at room temperature in order to form a conjugate. The mixture was then filtered through a 0.45 μm pore syringe filter and immediately used. […] The rats were then briefly anesthetized with halothane and dorsal skin injection sites (up to 4/rat) were stamped with a 12 mm test tube inked with a felt pad. Every site received 100 μl of an inflammatory agent or PBS injected intradermally into the middle of the circular mark. Inflammatory agents included carrageenan (1%) and histamine (10^-3 M) (Sigma). Rats were then returned to their cages. Two hrs later, animals were again anesthetized and 0.5 mL blood was obtained through orbital plexus bleed. Following sacrifice of the rats, the injection sites were excised along the marked lines, and subcutaneous muscle and fat layers were removed from the skin biopsies. Each skin biopsy was weighed and cut in four, and its Evans' Blue content was extracted overnight by incubation in 1 mL N,N-dimethylformamide (Aldrich, Milwaukee, Wis.). The absorbance at 650 nm of plasma samples and skin extracts was read in a plate reader, and the plasma content of each skin piece was calculated and expressed as μl plasma/g tissue.

[13] = Oral bioavailability (statement); assay type: in vivo; settings: pro-drug of GP-1-515

T1 sequence (A0AAA9RZ79 1-362): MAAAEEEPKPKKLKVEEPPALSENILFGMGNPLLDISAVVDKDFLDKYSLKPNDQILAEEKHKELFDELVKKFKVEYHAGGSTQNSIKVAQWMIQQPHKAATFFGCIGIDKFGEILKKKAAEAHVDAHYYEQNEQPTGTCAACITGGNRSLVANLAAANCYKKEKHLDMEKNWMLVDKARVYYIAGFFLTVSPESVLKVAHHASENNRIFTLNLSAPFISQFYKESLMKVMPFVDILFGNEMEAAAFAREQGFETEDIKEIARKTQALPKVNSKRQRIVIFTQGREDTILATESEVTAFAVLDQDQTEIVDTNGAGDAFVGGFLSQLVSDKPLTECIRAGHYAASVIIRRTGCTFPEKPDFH

With `NC[C@H]1O[C@@H](n2nc(Br)c3c(N)ncnc32)[C@H](O)[C@@H]1O` [GP-1-515] the “mice surviving for 2 days” value (E. coli LPS endotoxemia [1]) was 50%, the IC50 (adenosine kinase) was 9 nM and the “survival in endotoxic shock” value (E. coli LPS endotoxemia [2]) was “dose-dependent increase in survival; also recorded: protecting against endotoxic shock”. For the same compound, the “plasma TNF-α levels” value (TNF-α) was “significantly decreased plasma TNF-α levels”, the “gas exchange, pulmonary function, blood gases” value ([3]; 0.3 μg/kg/min infusion) was “marked protection; also recorded: minimal changes in blood gases; also recorded: did not develop the hypoxemia, hypercapnia and acidosis exhibited in the control animals” and the pigs died ([3]; control 4/7) was 1/7. For the same compound, the blood pressure ([3]; versus control) was “Blood pressures were similar in the treated and control groups”, the heart rate ([3]; versus control) was “the control group,, required a significantly higher heart rate; also recorded: lower heart rates than control animals” and the “other hemodynamic parameters, including pulmonary flow and pulmonary vascular resistance” value ([3]; versus untreated) was “either not different or modestly improved”. The “mice with positive mesenteric lymph node cultures” value (bacterial translocation; 0.1 mg/kg i.p. twice, 48 hours, control 52%, p<0.05) was 32%, the “bacterial translocation” value (bacterial translocation; after a severe burn (or pancreatitis)) was “significantly decreased; also recorded: significantly reduce bacterial translocation” and the “survival after cecal ligation and puncture” value [4] was “improved survival”.

For `Nc1ncnc2c1ncn2[C@@H]1O[C@H](CO)[C@@H](O)[C@H]1O` [Adenosine, adenosine], the coronary steal (heart) is listed as “cause coronary steal”, the “inotropic, chronotropic and dromotropic effects” value (heart) is listed as “negative inotropic, chronotropic and dromotropic effects” and the “in vitro production of tumor necrosis factor alpha” value [5] is listed as “inhibit in vitro production”.

For `Nc1ncnc2c1c(I)cn2[C@@H]1O[C@H](CO)[C@@H](O)[C@H]1O` [GP-1-202, 5-iodotubercidin, reference compound], the “adenosine uptake, guinea pig brain slices” value [6] is given as “inhibited”, the “adenosine uptake, rat brain slices” value [7] is given as “inhibited” and the “blood pressure and heart rate in anesthetized rats” value [8] is given as “decrease blood pressure and heart rate”. The “body temperature in mice” value [9] was “hypothermia”, the “flaccidity and locomotor activity in mice” value [9] was “pronounced general flaccidity and much-reduced spontaneous locomotor activity” and the “perfusate adenosine concentration, isolated rat hearts” value [10] was “no increase in perfusate adenosine concentration”. The “effects in dog hearts, ischemia and reperfusion” value [11] was “inconsistent effects”.

With `CC(=O)O[C@@H]1[C@H](OC(C)=O)[C@@H](CN)O[C@H]1n1nc(Br)c2c(N)ncnc21` [GP-1-792, 4-amino-1-(5-amino-5-deoxy-2,3-di-O-acetyl-1-β-D-ribofuranosyl)-3-bromopyrazolo[3,4-d]pyrimidine] the “suppression of carrageenan and histamine induced plasma leakage” value ([12]; FIG. 13 legend) was “suppression of carrageenan and histamine induced plasma leakage”, the inhibition at 5 mg/kg ([12]; carrageenan (1%), read-out: inhibition of carrageenan-induced plasma leakage) was 47 ± 5% and the inhibition at 5 mg/kg ([12]; histamine (10^-3 M), read-out: inhibition of histamine-induced plasma leakage) was 51 ± 5%. The “oral bioavailability” value [13] was “orally bioavailable”.
